Legend:
[1] = tested on: HDFs (non-cancerous human dermal fibroblasts); assay: MTT cytotoxicity assay, HDFs; type: cell-based; settings: Homo sapiens, Fibroblast, non-cancerous cells, average ±SD of four independent experiments, read-out: IC50 ± STDEV, HDFs
Description: (§1) The parental MCF7 (breast cancer cell line), A549 (non-small cell lung cancer cell line), and human dermal fibroblast (HDF) (human dermal cell line) cells were obtained from the American Type Culture Collection (ATCC, Manassas, VA, United States). MCF7 and A549 cells were cultured in RPMI 1640 medium (EuroClone, Italy) supplemented with 10% (v/v) heat-inactivated fetal bovine serum (FBS) (EuroClone, Italy), 1% penicillin-streptomycin (EuroClone, Italy), and 2 mM L-glutamine.
(§2) The cytotoxic activity of the tested compounds were tested using MTT assay. […] Then, the cell viability was recored and IC50 values were calcualted. ([Mosmann, 1983]; [Nafie et al., 2020c]).

A549 cells = assay: Flow cytometry, Annexin V/PI staining; type: cell-based, human; settings: A549, IC50 value, 48 h
Description: A549 cells were seeded into 6-well culture plates (3-5× 10^5 cells/well) and incubated overnight. […] Next, media supernatants and cells were collected and rinsed with ice-cold PBS. The cells were then suspended in the flow cytometry solutions and cells were stained with Annexin V/PI, and data was acquired using a Cytoflex FACS machine. Data were analyzed using cytExpert software. ([Hisham et al., 2019]; [Khodair et al., 2019]; [Nafie et al., 2020b]).

[2] = tested on: apoptosis-related genes in A549 cells; assay: Gene expression analysis by RT-PCR; type: cell-based, human; settings: A549 treated at IC50; normalized to β-actin; 2^-ΔΔCT
[3] = tested on: A549 (non-small cell lung cancer) cells; assay: MTT cytotoxicity assay, A549; type: cell-based, human; settings: Homo sapiens, A549, average ±SD of four independent experiments, read-out: IC50 ± STDEV, A549
Description: as §1, §2

EGFR = target: T1, EGFR (Homo sapiens, UniProt P00533); assay: EGFR-TK kinase assay (ADP-Glo); type: biochemical
T1 construct: purchased Promega V9261
Description: EGFR-TK assay kit (ADP-Glo™ kinase assay, Cat No. V9261, Promega, United States) kinase assay was performed to evaluate the capacity of 3h, 3i, and 3j to inhibit EGFR.

[4] = tested on: MCF-7 (breast cancer) cells; assay: MTT cytotoxicity assay, MCF-7; type: cell-based, human; settings: Homo sapiens, MCF7, average ±SD of four independent experiments, read-out: IC50 ± STDEV, MCF-7
Description: as §1, §2

CDK-2 = CDK-2 (Homo sapiens, UniProt P24941); assay: CDK-2 enzyme inhibition; type: biochemical
5-HT7R = target: 5-HT7R; parameters: method as in Kułaga et al., 2020; settings: ref Kułaga et al., 2020; read-out: Ki, 5-HT7 receptors; cited from earlier work
CDK1 = tested on: CDK1; parameters: method as in Kumar et al., 2019; settings: Figure 1; ref Kumar et al., 2019; read-out: CDK-inhibitor IC50, CDK1; cited from earlier work
CDK6 = tested on: CDK6; parameters: method as in Kumar et al., 2019; settings: Figure 1; ref Kumar et al., 2019; read-out: CDK-inhibitor IC50, CDK6; cited from earlier work
CDK4 = tested on: CDK4; parameters: method as in Kumar et al., 2019; settings: Figure 1; ref Kumar et al., 2019; read-out: CDK-inhibitor IC50, CDK4; cited from earlier work
CDK2-A = tested on: CDK2-A; parameters: method as in Kumar et al., 2019; settings: Figure 1; ref Kumar et al., 2019; read-out: CDK-inhibitor IC50, CDK2-A; cited from earlier work

T1 sequence (P00533 25-1210): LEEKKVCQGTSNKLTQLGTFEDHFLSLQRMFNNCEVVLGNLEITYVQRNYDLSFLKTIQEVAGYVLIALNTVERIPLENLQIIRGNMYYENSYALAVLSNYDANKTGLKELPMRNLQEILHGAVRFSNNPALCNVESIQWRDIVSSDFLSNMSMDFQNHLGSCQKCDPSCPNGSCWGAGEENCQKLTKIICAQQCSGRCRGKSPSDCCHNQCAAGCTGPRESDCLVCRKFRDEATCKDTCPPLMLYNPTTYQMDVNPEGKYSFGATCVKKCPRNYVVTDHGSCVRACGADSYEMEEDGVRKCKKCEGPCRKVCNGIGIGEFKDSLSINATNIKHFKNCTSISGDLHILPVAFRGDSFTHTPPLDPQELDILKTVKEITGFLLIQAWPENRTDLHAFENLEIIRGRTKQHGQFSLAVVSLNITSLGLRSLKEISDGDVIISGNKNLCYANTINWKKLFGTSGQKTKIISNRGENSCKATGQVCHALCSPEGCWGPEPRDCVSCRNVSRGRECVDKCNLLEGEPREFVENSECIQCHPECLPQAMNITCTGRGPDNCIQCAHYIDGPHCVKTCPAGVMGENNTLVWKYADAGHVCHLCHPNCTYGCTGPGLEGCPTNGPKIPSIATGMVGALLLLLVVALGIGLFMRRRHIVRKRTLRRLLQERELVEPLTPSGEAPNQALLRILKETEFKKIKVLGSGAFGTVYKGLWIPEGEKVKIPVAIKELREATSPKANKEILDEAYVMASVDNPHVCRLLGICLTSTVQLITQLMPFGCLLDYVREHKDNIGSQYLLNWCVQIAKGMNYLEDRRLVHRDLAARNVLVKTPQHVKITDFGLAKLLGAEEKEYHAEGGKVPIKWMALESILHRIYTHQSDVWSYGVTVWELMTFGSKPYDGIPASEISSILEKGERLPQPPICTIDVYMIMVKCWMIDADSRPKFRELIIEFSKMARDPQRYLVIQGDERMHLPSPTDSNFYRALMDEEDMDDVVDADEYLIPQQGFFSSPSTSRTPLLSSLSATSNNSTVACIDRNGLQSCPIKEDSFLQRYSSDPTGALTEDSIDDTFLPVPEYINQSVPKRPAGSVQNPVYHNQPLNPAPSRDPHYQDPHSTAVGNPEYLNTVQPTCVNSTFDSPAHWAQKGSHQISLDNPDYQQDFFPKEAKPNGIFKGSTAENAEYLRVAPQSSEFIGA

With `Nc1cc(-c2c[nH]c3ccccc23)nn1-c1nc(Nc2ccc(Cl)cc2)nc(N2CCOCC2)n1` [Compound 3i, 4-(5-Amino-3-(1H-indol-3-yl)-1H-pyrazol-1-yl)-N-(4-chlorophenyl)-6-morpholino-1,3,5-triazin-2-amine] the IC50 [1] was 3780 ± 550 nM, the “cells undergoing late apoptosis” value (A549 cells; control 0.16%) was 19.5% and the “cells undergoing early apoptosis” value (A549 cells; control 0.42%) was 24.2%. For the same compound, the total apoptosis (A549 cells; control 0.61%) was 43.7%, the “total apoptotic cell death, fold vs control” value (A549 cells; control 0.61%) was 71.6 fold and the necrosis-mediated cell death (A549 cells; control 0.97%) was 4.08%. The “necrosis-mediated cell death, fold increase” value (A549 cells; control 0.97%) was 4.2 fold, the “Bax gene expression, fold of change” value [2] was 3.56 fold and the “Bcl-2 gene expression, fold change” value [2] was 0.23 fold. For the same compound, the “P53 gene expression, fold of change” value [2] was 4.55 fold, the “caspase 3 gene expression, fold of change” value [2] was 6.96 fold and the “caspase 8 gene expression, fold of change” value [2] was 1.49 fold. The “caspase 9 gene expression, fold of change” value [2] was 7 fold, the IC50 [3] was 2400 ± 640 nM and the IC50 (EGFR; Mean ± SD of three independent replicates, read-out: EGFR inhibition IC50) was 34.1 ± 1.58 nM. It also gave an inhibition at 10 µM (EGFR; at 10 µM) of 93.6%, an IC50 [4] of 3280 ± 160 nM and an IC50 (CDK-2; Mean ± SD of three independent replicates) of 108 ± 3.12 nM. For the same compound, the inhibition at 10 µM (CDK-2; at 10 µM) was 91.4%.

In the case of `Nc1nc(NCCOc2ccccc2)nc(NCCc2c[nH]c3ccccc23)n1` [XIV], the Ki (5-HT7R) is given as < 60 nM.

In the case of `OCCCNc1cncc(-c2ncnc(Nc3cccc(Cl)c3)n2)c1` [XVII], the IC50 (CDK1) is given as 60 nM.

In the case of `OCCCNc1cc(-c2ncnc(Nc3cccc(Cl)c3)n2)ccn1` [XVI], the IC50 (CDK1) is listed as 21 nM, the IC50 (CDK6) is listed as 356 nM and the IC50 (CDK4) is listed as 308 nM. For the same compound, the IC50 (CDK2-A) was 7 nM.

In the case of `COc1nc(NCCc2c[nH]c3ccccc23)nc(Nc2ccc3[nH]ncc3c2)n1` [XV], the Ki (5-HT7R) is given as < 60 nM.

Source: publication PMC9732672, “Pyrazolyl-s-triazine with indole motif as a novel of epidermal growth factor receptor/cyclin-dependent kinase 2 dual inhibitors” (Frontiers in Chemistry, 2022)
